From ChEMBL document CHEMBL1201862, “PubChem BioAssay data set” (2004)
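In this assay, cells in 96-well plates receive the compound at five concentrations for 48 hours. Endpoints are linearly interpolated between the surrounding concentrations. GI50: concentration for 50% inhibition of growth.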 Calls of active or inactive are those of the source. Cut-off read from the data, not from the text of the source: active = GI50 up to about 1.1 µM and inactive = higher.

What was measured:
Assay in all cases: DTP human tumour cell line panel, 48 h
SK-MEL-2 = tested on: SK-MEL-2
RPMI-8226 = tested on: RPMI-8226
OVCAR-3 = tested on: OVCAR-3
MOLT-4 = tested on: MOLT-4
SK-MEL-5 = tested on: SK-MEL-5
EKVX = tested on: EKVX
UACC-257 = tested on: UACC-257
A498 = tested on: A498
786-0 = tested on: 786-0
LOX IMVI = tested on: LOX IMVI
HCT-116 = tested on: HCT-116
KM12 = tested on: KM12
Hs-578T = tested on: Hs-578T
BT-549 = tested on: BT-549
MDA-MB-435 = tested on: MDA-MB-435
SF-539 = tested on: SF-539
SN12C = tested on: SN12C
MDA-N = tested on: MDA-N
SK-MEL-28 = tested on: SK-MEL-28
OVCAR-4 = tested on: OVCAR-4

Measured: GI50

O=C1C(NCCc2ccc(O)c([N+](=O)[O-])c2)=CC(=O)c2[nH]cnc21
inactive: SK-MEL-2 16 µM | RPMI-8226 32.7 µM | OVCAR-3 15.2 µM | MOLT-4 19.8 µM | SK-MEL-5 16.2 µM | EKVX 27.4 µM | UACC-257 18.3 µM | A498 32.1 µM | 786-0 47.2 µM | LOX IMVI 15.8 µM | HCT-116 24.7 µM | KM12 42.9 µM | Hs-578T 83.9 µM | BT-549 > 10 µM | MDA-MB-435 18.6 µM | SF-539 38 µM | SN12C 26.2 µM | MDA-N 16.3 µM | SK-MEL-28 14.3 µM

O=C(O)c1ccccc1-c1ccccc1C(=O)Nc1ccc2c(c1)Cc1ccccc1-2
inactive: SK-MEL-2 22.6 µM | RPMI-8226 23.4 µM | OVCAR-3 25.3 µM | OVCAR-4 60.1 µM | SK-MEL-5 15.5 µM | EKVX 22.1 µM | UACC-257 28.3 µM | A498 19.4 µM | 786-0 34.7 µM | LOX IMVI 22.5 µM | HCT-116 18 µM | KM12 32.4 µM | Hs-578T 48.5 µM | BT-549 29.9 µM | MDA-MB-435 41.9 µM | SF-539 21.9 µM | SN12C 29.3 µM | MDA-N 27.4 µM | SK-MEL-28 40.8 µM

COc1ccc2c(-c3csc(-c4c[nH]c5ccc(Br)cc45)n3)c[nH]c2c1
inactive: SK-MEL-2 19.1 µM | RPMI-8226 27.1 µM | OVCAR-3 > 100 µM | MOLT-4 23 µM | OVCAR-4 70.5 µM | SK-MEL-5 > 100 µM | EKVX 32.1 µM | UACC-257 88.9 µM | A498 89.3 µM | 786-0 27.4 µM | LOX IMVI 64.1 µM | HCT-116 31.3 µM | KM12 43.6 µM | Hs-578T 74.1 µM | BT-549 67.3 µM | MDA-MB-435 7.69 µM | SN12C 58.1 µM | MDA-N 8.26 µM | SK-MEL-28 > 100 µM

COc1cc(C[C@@H](C)N)cc(OC)c1
inactive: SK-MEL-2 > 100 µM | RPMI-8226 > 100 µM | OVCAR-3 > 100 µM | MOLT-4 > 100 µM | OVCAR-4 > 100 µM | SK-MEL-5 > 100 µM | UACC-257 > 100 µM | A498 > 100 µM | 786-0 > 100 µM | LOX IMVI > 100 µM | HCT-116 > 100 µM | KM12 > 100 µM | Hs-578T > 100 µM | BT-549 > 100 µM | MDA-MB-435 > 100 µM | SF-539 > 100 µM | SN12C > 100 µM | MDA-N > 100 µM | SK-MEL-28 > 100 µM

CC(=O)Oc1ccc(N2C(=O)C3c4[nH]c5ccccc5c4C4CCC(C(C)(C)C)CC4C3C2=O)cc1 (stereo unspecified)
inactive: SK-MEL-2 5.13 µM | RPMI-8226 6.68 µM | OVCAR-3 2.69 µM | MOLT-4 10 µM | SK-MEL-5 2.84 µM | EKVX 3.07 µM | UACC-257 11.1 µM | A498 4.11 µM | 786-0 2.1 µM | LOX IMVI 4.41 µM | HCT-116 2.15 µM | Hs-578T 2.31 µM | BT-549 4.02 µM | MDA-MB-435 10.4 µM | SF-539 5.01 µM | SN12C 2.14 µM | MDA-N 4.67 µM | SK-MEL-28 3.76 µM

C=C1C/C(=C/C)C(=O)O[C@@H]2CCN3CC=C(COC(=O)[C@]1(C)O)[C@H]23 [SENECIPHYLLINE]
inactive: SK-MEL-2 > 100 µM | RPMI-8226 > 100 µM | OVCAR-3 > 100 µM | OVCAR-4 > 100 µM | SK-MEL-5 > 100 µM | EKVX > 100 µM | UACC-257 > 100 µM | A498 > 100 µM | 786-0 > 100 µM | LOX IMVI > 100 µM | HCT-116 > 100 µM | KM12 > 100 µM | Hs-578T > 100 µM | BT-549 > 100 µM | MDA-MB-435 > 100 µM | SF-539 > 100 µM | MDA-N > 100 µM | SK-MEL-28 > 100 µM

C[C@@H]1CC[C@@]2(OC1)O[C@H]1C[C@H]3[C@@H]4CC[C@H]5C[C@@H](OC6OC(CO)C(OC7OC(CO)C(O)C(OC8OCC(O)C(O)C8O)C7OC7OC(CO)C(O)C(O)C7O)C(O)C6O)[C@H](O)C[C@]5(C)[C@H]4CC[C@]3(C)[C@H]1[C@@H]2C (stereo partly specified)
inactive: SK-MEL-2 9.08 µM | RPMI-8226 1.85 µM | OVCAR-3 2.88 µM | MOLT-4 11.3 µM | OVCAR-4 1.95 µM | SK-MEL-5 9.84 µM | EKVX 5.35 µM | UACC-257 18.1 µM | A498 7.89 µM | 786-0 > 10 µM | LOX IMVI 1.39 µM | HCT-116 3.88 µM | KM12 8 µM | Hs-578T 5.75 µM | BT-549 2.94 µM | MDA-MB-435 13 µM | SF-539 2.69 µM | MDA-N 10.8 µM | SK-MEL-28 15.4 µM
